Experimental data reported in patent publication US8476288B2, “Salts 756” (AstraZeneca AB, priority 2009, dated 2013).
Structures can show the parent of a compound that is named as a salt.

Experiments:
Assay type in all cases: physicochemical
[1] = Salt storage stability at 40° C. and 75% relative humidity (HPLC for acid degradation product of Formula (A)); settings: stored under high temperature and humidity, for example 40° C. and 75% relative humidity
Method: The stability of the stability of the mono-saccharin (2 different batches), mono-trans-cinnamic acid, mono-succinic acid, mono-benzoic acid, difumaric acid, dixinafoic acid (di-1-hydroxy-2-naphthoic acid) and disaccharin salts of Compound (I) when stored at 40° C. and 75% relative humidity was measured as follows.
Approximately 30 mg of each salt was weighted into 4 mL screw cap vials, the vials closed and stored at 40° C./75% relative humidity with constant control of the environmental conditions. For every time point the samples were removed from the storage facility and analysed by HPLC for the presence of the acid degradation product of the Formula (A): […]
The HPLC analysis was performed using the following method:
A sample solution was prepared at approximately 0.1 to 0.2 mg/mL in the sample diluent, 0.03% trifluoroacetic acid in 50/50 v/v acetonitrile/water, using sonication as required. The following chromatographic conditions were applied: […]

[2] = Dynamic vapour sorption (DVS) hygroscopicity; settings: at 80% relative humidity, weight change from 0% RH to 80% RH in second DVS cycle
Method: DVS analysis was performed using an SMS Dynamic Vapour Sorption DVS-Advantage instrument. The solid sample (approximately 1-5 mg) was placed into a platinum sample holder and the weight of the sample was recorded during a dual cycle step method (40 to 90 to 0 to 90 to 0% relative humidity (RH), in steps of 10% RH).
The responses of the mono-fumaric acid salt and the difumaric acid salt (Examples 15 and 19) to changes in humidity were investigated using DVS. The hygroscopicity was calculated as the relative change in weight of the sample between 0% RH at the start of the second cycle and 80% RH during the increase of humidity in the second cycle.
The hygroscopicity of a sample is dependent on factors in addition to the inherent properties of the pure solid form itself, for example the purity and the crystallinity of the sample will have some impact on the result.

[3] = Salt/lactose monohydrate blend storage stability at 40° C. and 75% relative humidity; settings: mixtures of salt with lactose monohydrate; 40° C./75% relative humidity
Method: The storage stability of blends of lactose monohydrate with the mono-saccharin, mono-benzoic acid, difumaric acid and disaccharin salts of Compound (I) when stored at is 40° C. and 75% relative humidity was measured as follows.
Approximately 5 grams of each salt were micronised using a 1″ jet mill (MC One, Jetpharma, Balerna, Switzerland) with Nitrogen as the flow gas.
10 g of bulk lactose blend of each salt was prepared by the following method:
Micronised lactose monohydrate (9800 mg) was added to a 60 ml clear glass bottle. To this was added the micronised salt of compound (I) (200 mg) and a rubber stopper and aluminium screw cap used to close the bottle.
The bottle containing the salt and lactose monohydrate was placed in a trembling blender (Turbula T2C, W. Bachofen, Basel, Switzerland) blending vessel and the mixture blended for 10 minutes on speed 1 (30 rpm). A sample (2 g) of the lactose/salt blend was removed. The remaining of lactose/salt blend (8 g) was placed in a stability suite (controlled environmental conditions) at 40° C./75% relative humidity. The sample was temporarily removed from the storage facility for analysis. For each analysis 50 mg of the lactose/salt blend were dissolved in the sample diluents and analysed by HPLC for the compound of Formula (A) as described above in Example 23.

SMILES	solid state chemical stability on storage [1]	moisture uptake (hygroscopicity) [2]	stability in the presence of lactose monohydrate [3]	moisture uptake (hygroscopicity) ([2]; listed as difumaric acid salt of Compound (I))
CCCCCNc1nc(N)nc(C)c1Cc1ccc(CC(=O)OCCCCN(C)C)cc1.O=C(O)c1ccccc1 [Example 1, 4-(Dimethylamino)butyl 2-(4-((2-amino-4-methyl-6-(pentylamino)pyrimidin-5-yl)methyl)phenyl)acetate benzoic acid salt]	good solid state chemical stability	–	–	–
CCCCCNc1nc(N)nc(C)c1Cc1ccc(CC(=O)OCCCCN(C)C)cc1.O=C(O)/C=C/C(=O)O [Example 15, 4-(Dimethylamino)butyl 2-(4-((2-amino-4-methyl-6-(pentylamino)pyrimidin-5-yl)methyl)phenyl)acetate fumaric acid salt]	–	more than 2 % w/w	–	–
CCCCCNc1nc(N)nc(C)c1Cc1ccc(CC(=O)OCCCCN(C)C)cc1.O=C(O)/C=C/C(=O)O [Example 19, 4-(Dimethylamino)butyl 2-(4-((2-amino-4-methyl-6-(pentylamino)pyrimidin-5-yl)methyl)phenyl)acetate difumaric acid salt]	good solid state chemical stability	–	particularly stable in the presence of lactose monohydrate	0.2-2 % w/w
CCCCCNc1nc(N)nc(C)c1Cc1ccc(CC(=O)OCCCCN(C)C)cc1 [disaccharin salt of Compound (I)]	good solid state chemical stability	–	particularly stable in the presence of lactose monohydrate	–
